{
  "source": "patent US20260223841A1",
  "about": "(priority 2023, published 2026)",
  "key": {"[1]": {"tested_on": "Xylella fastidiosa subsp. multiplex IVIA5901", "experiment": "microbe, parasite or virus in culture", "type": "cell-based", "settings": "0.5 h, read-out: minimum bactericidal concentration (MBC)"}, "[2]": {"tested_on": "Xylella fastidiosa subsp. pauca DeDonno", "experiment": "microbe, parasite or virus in culture", "type": "cell-based", "settings": "0.5 h, read-out: minimum bactericidal concentration (MBC)"}, "Erwinia amylovora EPS101": {"tested_on": "Erwinia amylovora EPS101", "type": "cell-based"}, "[3]": {"tested_on": "Xylella fastidiosa subsp. fastidiosa IVIA5387.2", "type": "in vivo, Prunus dulcis", "settings": "33 mg/ml trunk microinjection, 2 mg/plant, preventive + curative"}, "[4]": {"tested_on": "Liberibacter crescens strain BT-1 (cultured surrogate for Candidatus Liberibacter spp.)", "settings": "100 and 250 μg/ml; 30 or 120 minutes of contact"}, "[5]": {"tested_on": "Xylella fastidiosa subsp. fastidiosa IVIA5387.2"}, "[6]": {"tested_on": "Liberibacter crescens strain BT-1 (cultured surrogate for Candidatus Liberibacter spp.)", "experiment": "microbe, parasite or virus in culture", "settings": "0.5 h, read-out: minimum bactericidal concentration (MBC)"}, "[7]": {"tested_on": "Xylella fastidiosa subsp. fastidiosa IVIA5387.2", "experiment": "microbe, parasite or virus in culture", "settings": "0.5 h, read-out: minimum bactericidal concentration (MBC)"}, "[8]": {"settings": "50 μg/ml, after 30 min of contact"}, "[9]": {"settings": "50 μg/ml, after 120 min of contact"}},
  "note": "Where two headings read alike, the source gives them in different places.",
  "data": [
    {"smiles": "CCCCCCCCCCCC(=O)OCC(O)CO", "note": "(stereo not shown) [Compound of formula (I), 2,3-dihydroxypropyl dodecanoate]", "values": [
      {"measurement": "MBC", "setting": "[1]", "value": "< 250", "unit": "µg/mL"},
      {"measurement": "MBC", "setting": "[2]", "value": "< 250", "unit": "µg/mL"},
      {"measurement": "bactericidal effect (bacterial growing, not quantitative)", "setting": "Erwinia amylovora EPS101", "value": "no bactericidal effect"},
      {"measurement": "severity scale score (almond leaf scorch, 0-5)", "setting": "[3]; 55 days after infection", "value": 0.11},
      {"measurement": "severity scale score (almond leaf scorch, 0-5)", "setting": "[3]; 62 days after infection", "value": 0.44},
      {"measurement": "severity scale score (almond leaf scorch, 0-5)", "setting": "[3]; 82 days after infection", "value": 0.42},
      {"measurement": "severity scale score (almond leaf scorch, 0-5)", "setting": "[3]; 115 days after infection", "value": 1.17},
      {"measurement": "severity scale score (almond leaf scorch, 0-5)", "setting": "[3]; 140 days after infection", "value": 2.33},
      {"measurement": "mortality (no growth observed)", "setting": "[4]", "value": "about 100%"},
      {"measurement": "survival", "setting": "[5]; [8]", "value": "about 27.6%"},
      {"measurement": "survival (log CFU/ml)", "setting": "[5]; [8]", "value": 2.26, "unit": "log CFU/ml"},
      {"measurement": "survival", "setting": "[5]; [9]", "value": "~23.1", "unit": "%"},
      {"measurement": "survival (Log CFU/ml)", "setting": "[5]; [9]", "value": 1.87, "unit": "Log CFU/ml"},
      {"measurement": "mortality (no growth observed)", "setting": "[5]; 100 and 75 μg/ml, 30 or 120 minutes of contact", "value": "about 100%"},
      {"measurement": "MBC", "setting": "[6]", "value": "< 100", "unit": "µg/mL"},
      {"measurement": "MBC", "setting": "[7]", "value": "~50", "unit": "µg/mL"}
    ]}
  ]
}
